# ± gives the standard deviation of the averaged measurements.
# How the values were obtained:
# [1] = compound: COc1cc2c(Oc3ccc(NC(=O)C4(C(=O)Nc5ccc(F)cc5)CC4)cc3F)ccnc2cc1OCCCN1CCOCC1 [FORETINIB]; assay: surviving fraction relative to DMSO-only wells; higher = less growth inhibition; conditions: exposure time: 5 days
# How it was run: (§1)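 Log-phase tumour cell lines, 250–500 cells per well in 384-well plates, received inhibitors at 0.5, 1, 5, 10, 50, 100, 500 and 1000 nM continuously for five days, starting 24 hours after seeding. Viability was quantified with CellTiter-Glo luminescence and normalised to the median of DMSO-only wells to give surviving fraction. Three screens were run per line, and a line stayed in only with replicate Pearson r >0.7 and median Z' >0.3.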
# [2] = compound: CNCc1ccc(-c2[nH]c3cc(F)cc4c3c2CCNC4=O)cc1; assay: as above; conditions: exposure time: 5 days
# How it was run: as §1
Test System,surviving fraction ([1]; 0.5 nM),surviving fraction ([1]; 1 nM),surviving fraction ([1]; 5 nM),surviving fraction ([1]; 10 nM),surviving fraction ([1]; 50 nM),surviving fraction ([1]; 100 nM),surviving fraction ([1]; 500 nM),surviving fraction ([1]; 1000 nM),surviving fraction ([2]; 0.5 nM),surviving fraction ([2]; 1 nM),surviving fraction ([2]; 5 nM),surviving fraction ([2]; 10 nM),surviving fraction ([2]; 50 nM),surviving fraction ([2]; 100 nM),surviving fraction ([2]; 500 nM),surviving fraction ([2]; 1000 nM)
LM7 BONE,1.02 ± 0.028,1.04 ± 0.06,1.05 ± 0.016,1.02 ± 0.011,0.997 ± 0.015,1.03 ± 0.058,0.725 ± 0.042,0.216 ± 0.013,0.912 ± 0.043,0.965 ± 0.015,0.986 ± 0.06,1.01 ± 0.016,0.752 ± 0.042,0.679 ± 0.1,0.497 ± 0.013,0.451 ± 0.0082
MFM223 BREAST,1.17 ± 0.043,1.09 ± 0.041,1.18 ± 0.062,1.22 ± 0.034,1.133 ± 0.011,0.94 ± 0.023,0.417 ± 0.17,0.271 ± 0.13,1.04 ± 0.11,1.17 ± 0.072,1.07 ± 0.069,1.13 ± 0.12,0.775 ± 0.053,0.699 ± 0.011,0.755 ± 0.031,0.705 ± 0.079
MDAMB453 BREAST,1.1 ± 0.067,1.09 ± 0.062,1.12 ± 0.058,1.13 ± 0.087,1.12 ± 0.025,1.08 ± 0.04,0.952 ± 0.041,0.763 ± 0.035,0.991 ± 0.071,1.01 ± 0.096,1.05 ± 0.049,0.979 ± 0.093,0.919 ± 0.062,0.957 ± 0.06,0.892 ± 0.022,0.696 ± 0.017
JIMT1 BREAST,0.991 ± 0.015,0.978 ± 0.032,1.03 ± 0.058,1.03 ± 0.031,1 ± 0.041,1.01 ± 0.11,0.62 ± 0.033,0.484 ± 0.087,0.948 ± 0.055,0.945 ± 0.052,0.98 ± 0.067,0.9615 ± 0.0036,0.881 ± 0.045,0.885 ± 0.05,0.864 ± 0.031,0.856 ± 0.054
NOS1 BONE,1.12 ± 0.43,1.04 ± 0.052,1 ± 0.063,0.98 ± 0.099,0.79 ± 0.058,0.749 ± 0.028,0.28 ± 0.039,0.114 ± 0.0078,1.01 ± 0.042,1.08 ± 0.23,1.06 ± 0.13,0.919 ± 0.11,0.795 ± 0.1,0.798 ± 0.11,0.632 ± 0.049,0.602 ± 0.036
HOSMNG BONE,0.915 ± 0.11,0.904 ± 0.074,0.895 ± 0.066,0.855 ± 0.036,0.55 ± 0.039,0.381 ± 0.014,0.128 ± 0.0089,0.065 ± 0.0044,0.936 ± 0.055,0.988 ± 0.083,0.94 ± 0.14,0.857 ± 0.03,0.838 ± 0.032,0.885 ± 0.089,0.929 ± 0.11,0.954 ± 0.045
BT549 BREAST,1.09 ± 0.059,1.08 ± 0.059,1.09 ± 0.15,1.12 ± 0.089,1.08 ± 0.12,1.15 ± 0.12,0.701 ± 0.022,0.222 ± 0.014,0.958 ± 0.011,1.01 ± 0.16,0.972 ± 0.078,1.04 ± 0.081,0.753 ± 0.13,0.818 ± 0.073,0.828 ± 0.069,0.881 ± 0.056
CAL120 BREAST,0.95 ± 0.035,1.01 ± 0.033,0.997 ± 0.026,0.993 ± 0.042,0.997 ± 0.069,0.97 ± 0.014,0.683 ± 0.03,0.562 ± 0.016,1.04 ± 0.047,0.995 ± 0.075,0.984 ± 0.044,1.01 ± 0.043,0.945 ± 0.026,0.929 ± 0.056,0.926 ± 0.057,0.918 ± 0.043
VP229 BREAST,1.31 ± 0.085,1.09 ± 0.11,1.13 ± 0.14,1.07 ± 0.1,1.14 ± 0.11,1.05 ± 0.15,0.808 ± 0.14,0.616 ± 0.15,1.15 ± 0.18,1.01 ± 0.14,1.04 ± 0.058,1.01 ± 0.12,0.954 ± 0.042,0.848 ± 0.076,0.823 ± 0.05,0.917 ± 0.067
HT1080 SOFT TISSUE,1.01 ± 0.026,1.06 ± 0.037,1 ± 0.017,1.01 ± 0.033,1.04 ± 0.048,0.996 ± 0.017,0.779 ± 0.025,0.3927 ± 0.0032,1.04 ± 0.019,1.01 ± 0.014,0.983 ± 0.04,0.968 ± 0.018,0.899 ± 0.018,0.869 ± 0.037,0.818 ± 0.047,0.671 ± 0.068
ZR751 BREAST,1.04 ± 0.21,1.12 ± 0.12,0.969 ± 0.1,1.06 ± 0.16,0.963 ± 0.06,1.07 ± 0.062,0.902 ± 0.062,0.783 ± 0.1,0.991 ± 0.15,0.962 ± 0.049,0.981 ± 0.075,1.1 ± 0.11,0.873 ± 0.056,0.903 ± 0.075,0.823 ± 0.037,0.709 ± 0.12
HCC202 BREAST,1.04 ± 0.11,1.33 ± 0.14,1.24 ± 0.37,1.02 ± 0.033,1.48 ± 0.2,1.34 ± 0.33,1.18 ± 0.15,0.995 ± 0.23,0.936 ± 0.073,1.2 ± 0.39,1.21 ± 0.31,1.08 ± 0.087,1.14 ± 0.21,0.78 ± 0.12,0.844 ± 0.033,0.867 ± 0.13
CAL51 BREAST,0.991 ± 0.039,0.964 ± 0.053,1.04 ± 0.011,0.9858 ± 0.0063,0.993 ± 0.064,0.979 ± 0.052,0.162 ± 0.0044,0.136 ± 0.01,0.935 ± 0.033,0.96 ± 0.04,0.927 ± 0.023,0.848 ± 0.052,0.954 ± 0.019,0.819 ± 0.021,0.706 ± 0.035,0.604 ± 0.021
SG28 HEADNECK,1.04 ± 0.07,1.15 ± 0.12,1.12 ± 0.077,0.972 ± 0.011,1.02 ± 0.054,0.941 ± 0.054,0.826 ± 0.023,0.512 ± 0.046,1.09 ± 0.1,0.995 ± 0.011,0.953 ± 0.012,1 ± 0.073,0.763 ± 0.056,0.723 ± 0.046,0.798 ± 0.086,0.76 ± 0.12
SG31 HEADNECK,1.38 ± 0.16,1.41 ± 0.11,1.1 ± 0.18,1.09 ± 0.21,0.969 ± 0.14,1.12 ± 0.11,1.02 ± 0.17,0.898 ± 0.087,1.31 ± 0.25,1.14 ± 0.13,1.11 ± 0.15,1.12 ± 0.092,0.922 ± 0.12,0.845 ± 0.061,0.929 ± 0.12,0.947 ± 0.09
SAOS2 BONE,1.17 ± 0.045,1.12 ± 0.072,1.12 ± 0.048,1.17 ± 0.069,1.15 ± 0.15,1.08 ± 0.15,0.611 ± 0.082,0.162 ± 0.03,1.12 ± 0.044,1.14 ± 0.08,1.14 ± 0.02,1.12 ± 0.16,0.844 ± 0.061,0.833 ± 0.069,0.747 ± 0.1,0.662 ± 0.021
SCC36 HEADNECK,1.06 ± 0.11,1.11 ± 0.13,1.17 ± 0.02,1.13 ± 0.047,1.115 ± 0.0078,1.08 ± 0.061,0.742 ± 0.084,0.41 ± 0.035,1.02 ± 0.15,0.999 ± 0.1,1.11 ± 0.024,1.07 ± 0.1,0.763 ± 0.057,0.728 ± 0.018,0.629 ± 0.019,0.592 ± 0.069
DU4475 BREAST,0.942 ± 0.16,1.03 ± 0.019,0.931 ± 0.066,0.971 ± 0.19,0.979 ± 0.11,0.821 ± 0.13,0.715 ± 0.031,0.644 ± 0.043,1.02 ± 0.066,0.921 ± 0.1,0.969 ± 0.03,0.881 ± 0.063,0.807 ± 0.12,0.696 ± 0.053,0.612 ± 0.088,0.479 ± 0.074
HOS BONE,1.014 ± 0.0075,1.01 ± 0.012,1.057 ± 0.0045,1.01 ± 0.022,1.02 ± 0.075,1.02 ± 0.036,0.55 ± 0.024,0.451 ± 0.013,1.02 ± 0.017,1.05 ± 0.034,1.01 ± 0.015,1.029 ± 0.01,1.01 ± 0.023,0.994 ± 0.022,1.02 ± 0.019,0.9833 ± 0.0055

# Source: the supplement of paper PMC6045584
